{
  "source": "ChEMBL document CHEMBL1149937",
  "about": "“A new class of dinucleotide analogues. The synthesis of 3-O-thymidylyl(5-deoxy-5-selene-thymidylyl)-Se-phosphoroselenolate, its O-methyl ester and methanephosphonate derivatives” (Bioorg Med Chem Lett, 1994)",
  "assay_type_in_all_cases": "functional, cell-based",
  "conditions_in_all_cases": "Homo sapiens",
  "key": {"ATH-8 cell line [1]": {"system": "ATH-8 cell line", "assay": "Antiviral activity against HIV-1 using CD4+ ATH8 cells at a concentration of 25 uM; moderately toxic"}, "ATH-8 cell line [2]": {"system": "ATH-8 cell line", "assay": "Antiviral activity against HIV-1 using CD4+ ATH8 cells at a concentration of 5 uM; No detectable activity"}, "ATH-8 cell line [3]": {"system": "ATH-8 cell line", "assay": "Antiviral activity against HIV-1 using CD4+ ATH8 cells at a concentration of 25 uM; No detectable activity"}},
  "data": [
    {"smiles": "Cc1cn([C@H]2C[C@H](OP(=O)(O)[Se]C[C@H]3O[C@@H](n4cc(C)c(=O)[nH]c4=O)C[C@@H]3O)[C@@H](CO)O2)c(=O)[nH]c1=O", "values": [
      {"measurement": "Activity", "setting": "ATH-8 cell line [1]", "result": "Toxic"},
      {"measurement": "Activity", "setting": "ATH-8 cell line [2]", "result": "No activity"}
    ]},
    {"smiles": "COP(=O)(O[C@H]1C[C@H](n2cc(C)c(=O)[nH]c2=O)O[C@@H]1CO)[Se]C[C@H]1O[C@@H](n2cc(C)c(=O)[nH]c2=O)C[C@@H]1O", "note": "(some centres undefined)", "values": [
      {"measurement": "Activity", "setting": "ATH-8 cell line [3]", "result": "No activity"},
      {"measurement": "Activity", "setting": "ATH-8 cell line [2]", "result": "No activity"}
    ]}
  ]
}
